Read-outs that look alike come from different tables or passages of the source. Marks after values point to notes of the source that are not given here.
How the values were obtained:
Sprague Dawley rats = experiment: 26 week rat toxicity study: coagulation; assay type: in vivo; details: male rats, 26 weeks
Description: The test and control items were administered to the appropriate animals by once daily oral gavage 7 days a week for a minimum of 26 weeks. The volume for each animal was based on the most recent body weight measurements. The doses were given using a syringe with attached gavage cannula. The first day of dosing was designated as Day 1. The dosing formulations were removed from the refrigerator and stirred for at least 30 minutes before dosing. The dosing formulations were also stirred continuously during dosing.
Sample Collection: Blood was collected via the tail vein unless immediately prior to necropsy, when blood was collected from the orbital sinus under non-recoverable isoflurane anesthesia. Blood was collected in ascending animal order unless samples were collected prior to necropsy where the order of euthanasia was followed. Additional blood samples were obtained (e.g., due to clotting of non-serum samples) if permissible sampling frequency and blood volume were not exceeded. After collection, samples were transferred to the appropriate laboratory for processing. Samples were collected according to the following table.
Coagulation: A 0.5 mL blood sample was collected using the anticoagulant 3.8% (w/v) trisodium citrate for processing to plasma. To assess coagulation the following coagulation parameters were measured.
Animals: The study used male and female Sprague Dawley rats purchased from Charles River UK Limited (Margate, Kent, UK). The target age at the initial dosing was 7-8 weeks. The target weight at the initial dosing was 175-300 g (males) and 120-250 g (females). Each animal was identified using a subcutaneously implanted electronic cylindrical, “glass-sealed” TROVAN microchip.

BDL-operated mice [1] = experiment: BDL study: serum biochemistry (ALT, total bilirubin); assay type: in vivo
Description: Sample Collection: For serum samples, non-fasting blood was collected in serum separate tubes without anticoagulant through direct cardiac puncture and centrifuged at 3,500×g for 4 minutes at 4° C. The superatant was collected and stored at −80° C. for biochemistry (30 μL) and shipping (all the remaining). For liver samples, left lateral lobe was collected and cut into 6 pieces. Two pieces of left lateral lobe were fixed in Bouin's solution and then embedded in paraffin. Samples were stored at room temperature for histological analysis. The other 2 pieces of left lateral lobe were embedded in O.C.T. compound and quick frozen in liquid nitrogen. Samples were stored at −80° C. The remaining pieces of left lateral lobe was snap frozen in liquid nitrogen and stored at −80° C. for gene expression analyses. Right medial lobe, left medial lobe, right lobe and caudate lobe were snap frozen in liquid nitrogen and stored at −80° C. for shipping.

[2] = tested on: TGF-β signaling in HepG2 cells; experiment: TGF-β-induced EMT protein expression and type II TGF-β receptor in HepG2 cells; assay type: cell-based, human; details: liver cell lines (HepG2, LX2)
Description: The effects of 15-HEPE on TGF-β-induced signaling and cellular responses were determined. To test the effect of 15-HEPE on TGF-β-induced signaling, the activities of 15-HEPE to regulate TGF-β-stimulated Smad2 phosphorylation and nuclear translocation, both of which are key signaling events leading to TGF-β-induced cellular responses, were tested. One important biological activity of TGF-β is transcriptional activation of genes responsible for epithelial-mesenchymal transition (EMT), which is a crucial event in wound healing, tissue fibrosis, and cancer progression. The effect of 15-HEPE on TGFβ-induced epithelial mesenchymal transition related proteins (such as fibronectin, PAI-1, and N-cadherin etc.) expression in HepG2 and LXR cells were assessed. HepG2 cells (human hepatoma cell line) were treated in increasing doses of 15-HEPE stage II in DMEM containing 0.1% of FBS for 1 hour and continually stimulated with or without 200 picomolar (pM) of TGF-β for 48 hours. […] HepG2 cells (human hepatoma cell line) were treated in increasing doses of 15-HEPE stage II in DMEM containing 0.1% of FBS for 1 hour and continually stimulated with or without 200 picomolar (pM) of TGF-β for 48 hours. The two panels shown in FIG. 18A are two separate experiments run under the same experimental conditions.

[3] = tested on: protein and lipid biomarkers of NAFLD patients; experiment: Phase IIa NAFLD study: lipidomics and proteomics of blood samples; assay type: in vivo, human
Description: Exploratory analysis: The exploratory analysis included analysis of lipid and metabolic parameters including total cholesterol, triglycerides, very low-density lipoprotein cholesterol (VLDL-C), low density lipoprotein cholesterol (LDL-C), high density lipoprotein cholesterol (HDL-C), non-high-density lipoprotein cholesterol (non-HDL-C), remnant-like particle cholesterol (RLP-C), fasting glucose, insulin, free fatty acids and hemoglobin A1C (HbA1C). Additional exploratory analysis included high throughput lipidomics and proteomics.

BDL-operated mice [4] = assay type: in vivo
Description: BDL Surgery: On Day 0 of the study, BDL surgery was performed under pentobarbital anesthesia. The mouse's hair was first shaved, the abdominal cavity cut open, and the common bile duct was ligated twice with 7-0 surgical silk. The mouse's peritoneum and the skin were closed with sutures, and the mice were transferred to a clean cage (e.g., resting cage) until recovered from anesthesia. Sham operated mice had their common bile duct exposed but not ligated.
Animals: Pathogen-free 6 weeks of age male C57BL/6J mice were obtained. The animals were maintained in a specific-pathogen free (SPF) facility under controlled conditions of temperature (e.g., 23±2° C.), humidity (e.g., 45±10%), lighting (e.g., 12-hour artificial light and dark cycles; light from 8:00 to 20:00) and air exchange. A high pressure was maintained in the experimental room to prevent contamination of the facility. The animals were housed in TPX cages with a maximum of 4 mice per cage. Sterilized Paper-Clean was used for bedding and replaced once a week. Sterilized solid normal diet was provided ad libitum, being placed in a metal lid on the top of the cage. Pure water was also provided ad libitum from a water bottle equipped with a rubber stopper and a sipper tube. Water bottles were replaced once a week, cleaned, and sterilized in an autoclave and reused. Mice were identified by ear punch and each cage was labeled with a specific identification code.
Animal Monitoring and Sacrifice: The viability, clinical signs and behavior for the mice were monitored daily. Individual body weight was measured daily before treatment during the treatment period. […] The animals were sacrificed at Day 14 after BDL surgery by exsanguination through direct cardiac puncture under isoflurane anesthesia.

[5] = 6000/3000 mg/kg/day oral gavage
[6] = 50 mg/kg PO QD Day 0-13, Day 14, mean ± SD
[7] = 250 mg/kg PO QD Day 0-13, Day 14, mean ± SD
[8] = 500 mg/kg PO QD Day 0-13, Day 14, mean ± SD
[9] = DS102 50, 250, 500 mg/kg groups vs Vehicle group

Structure (SMILES): CC/C=C\C[C@H](O)/C=C/C=C\C/C=C\C/C=C\CCCC(=O)OCC [DS102, 15(S)-hydroxy-(5Z,8Z,11Z,13E,17Z)-eicosapentaenoic acid ethyl ester]
- Activated Partial Thromboplastin Time (APTT), Mean (Sprague Dawley rats; 2000 mg/kg/day oral gavage): 15.03* sec
- Fibrinogen (FIB), Mean (Sprague Dawley rats; 2000 mg/kg/day oral gavage): 2.35** g/L
- Prothrombin Time (PT), Mean (Sprague Dawley rats; 2000 mg/kg/day oral gavage): 10.69** sec
- Activated Partial Thromboplastin Time (APTT), Mean (Sprague Dawley rats; [5]): 15.73** sec
- Fibrinogen (FIB), Mean (Sprague Dawley rats; [5]): 2.26** g/L
- Prothrombin Time (PT), Mean (Sprague Dawley rats; [5]): 10.81** sec
- Serum ALT (BDL-operated mice [1]; [6]): 402 ± 112 U/L
- Serum Total Bilirubin (BDL-operated mice [1]; [6]): 26.8 ± 6.9 mg/dL
- Serum ALT (BDL-operated mice [1]; [7]): 351 ± 155 U/L
- Serum Total Bilirubin (BDL-operated mice [1]; [7]): 23.5 ± 9.8 mg/dL
- Serum ALT (BDL-operated mice [1]; [8]): 383 ± 147 U/L
- Serum Total Bilirubin (BDL-operated mice [1]; [8]): 26.2 ± 6.1 mg/dL
- serum ALT level (BDL-operated mice [1]; [9]): no significant differences
- serum total bilirubin level (BDL-operated mice [1]; [9]): no significant differences
- TGF-β signaling [2]: directly inhibit
- expression of multiple circulating chemokines [3]: decreased
- expression of multiple proteins associated with increased cardiovascular risk [3]: decreased
- expression of multiple tumor necrosis factor receptor superfamily members [3]: decreased
- expression of multiple vascular adhesion molecules [3]: decreased
- TR (transferrin receptor protein 1) ([3]; 1 g): significant reductions
- NASH drug development targets (CCR2/5 signaling, Galectin3, AOC3) ([3]; 2 g): decreased
- levels of multiple glycerophospholipid groups ([3]; 2 g): significantly increased
- levels of multiple hepatotoxic diglycerides ([3]; 2 g): significantly decreased
- inflammatory and pro-fibrotic proteins (Table 19: PAI-1, TIMP-1, DPP4, TLT2, CCL16, MCP-1, SAA4, PI3/Elafin, TR, LILRB1, TNRSF11A) ([3]; 2 g, Bonferroni and Benjamini-Hochberg testing): decreased
- number of markers (inflammation, fibrosis, lipid metabolism, apoptosis, chemotaxis) with significantly downregulated expression ([3]; 2 g, panel of greater than 350 protein biomarkers): over 150
- Body Weight (BDL-operated mice [4]; [6]): 17.4 ± 2.9 g
- Liver Weight (BDL-operated mice [4]; [6]): 1392 ± 328 mg
- Body Weight (BDL-operated mice [4]; [7]): 17.0 ± 2.4 g
- Liver Weight (BDL-operated mice [4]; [7]): 1513 ± 182 mg
- Body Weight (BDL-operated mice [4]; [8]): 16.4 ± 1.6 g
- mean body weight at any day during the study period (BDL-operated mice [4]; [9]): no significant changes
- mean body weight on the day of sacrifice (BDL-operated mice [4]; [9]): no significant differences
- mice found dead before reaching Day 14 (BDL-operated mice [4]; in the DS102 low, middle and high groups (50, 250, 500 mg/kg), Vehicle three out of 15): seven out of 15
